# Test results taken from patent publication US10174015B2, “Substituted heterocyclic derivative, preparation method and use thereof” (Xiamen University, priority 2014, dated 2019).
# Where two headings read alike, the source gives them in different places.
# Experiments:
# [1] = Stability assay in rat plasma; assay type: in vitro ADME; conditions: 37° C.
# Description: To each of several tubes sub-packaged with rat plasma, PBS solution was added in a volume equal to a quarter of plasma volume, and the resultant mixture was mixed well. […] At different time points (0, 10, 30, 60, 120, 240, 360, 720, 1440 min), 50 μL plasma sample was taken and added to 150 μL precooled methanol (containing the internal standard compound E8, with a structure of
# [drawing 117] and a name of 1-(2-Biphenyl-4-yl)ethyl-carbonyl pyrrolidine, 1 nmol/sample), wherein three parallel samples were prepared for each time point. The samples were then vertically mixed well, and centrifuged at 4° C., 12000 g for 10 min. The supernatant was transferred to a sample vial. LC-MS/MS was used to measure the peak area at different time points, Analyst® version 1.4.1. software was used to analyze chromatographic peak, and the content of the target compound was calculated by virtue of the standard curve.
# zebrafish embryos = assay type: in vivo; conditions: for Death number (72 h): n = 30; for Body length (72 h) / Hatching number (72 h) / Heartbeat (72 h) / Unhatching number (72 h) / hatching rate: zebrafish, in vivo, 72 h
# Description: Fertilized eggs (donated by Zebrafish Research Group, School of Life Sciences, Xiamen University) were incubated in freshly prepared zebrafish embryo culture medium, which was replaced by fresh culture medium every day, and cultured in 28.5° C. incubator. Pure water was placed in the incubator to ensure a certain humidity in the culture environment. The formulation for zebrafish embryo culture medium was following: 5 mM NaCl, 0.17 mM KCl, 0.33 mM CaCl2, 0.33 mM MgSO4, 10-5% methylene blue. The culture medium was prepared with pure water. For example, NaCl: 292.2 mg, KCl: 12.68 mg, CaCl2: 36.63 mg, MgSO4: 39.72 mg, and methylene blue: 0.1 μL were needed for the preparation of 1 L culture medium.
# 7 Groups were set for each test compound, including 5 experimental groups relating to the test compound at different concentrations (solutions containing the test compound at different concentrations were prepared by using zebrafish embryo culture medium, wherein the concentrations were 10 mg/L, 3 mg/L, 1 mg/L, 0.3 mg/L, 0.1 mg/L), 1 solvent control group (DMSO) and 1 blank control group. The positive control drug was OTC analgesic ibuprofen at concentrations as described above. A 96-well cell culture plate was used to perform the experiment, three wells in parallel were used for each experimental group, and 10 fish eggs were contained in each well.
# Culture medium containing a test compound was prepared, and the culture medium was added to a 96-well plate in advance, and each fertilized egg (by reference to the experimental method in OECD No. 212 document, fertilized eggs, which developed normally within 2 h after fertilization, were selected and subjected to exposure. Transparent fish eggs visible to naked eye were normally fertilized, while white fish eggs were dead and discarded. After the selection, the normally fertilized eggs had begun to divide as observed under microscope) was then independently placed in a different well, and cultured in the culture medium containing a test compound at a different concentration. Embryo development status at different stages was observed and photographed with invert microscope, including: […]
# II. Hatching number and death number were counted at 72 h after fertilization, and hatching rate and mortality were calculated; […]
# V. Heartbeat of young fishes (times/min) was recorded at 72 h and 96 h after fertilization (Recording method: heartbeat of young fishes could be clearly observed under microscope, and the number of heartbeats was recorded for 30 s).
# RAW264.7 cells = experiment: Assay on cytotoxicity (CCK8); assay type: cell-based; conditions: RAW264.7 cells, 3, 10, 30, 100 μM, 24 h and 48 h; compound 9 except at 100 μM
# Description: RAW264.7 cells in good growing state (purchased from American Type Culture Collection, ATCC, Beijing), at a density of about 80%-90%, were scraped off with a cell scraper to prepare a cell suspension. After counting, the cells were accurately seeded in a 96-well plate, at 100 μL per well, wherein the total number of cells retained the same, at about 20000 cells/well, and the same amount of culture medium (which was DMEM (Gibco, Shanghai) medium containing 10% fetal bovine serum (PAA), 1% penicillin-streptomycin (PAA)) was added. The 96-well plate was placed in an incubator to preincubate for 24 h (37° C., 5% CO2). The marginal wells of the plate were filled with an equal amount of PBS, but were not seeded with cells, so as to prevent evaporation of the culture medium in the experimental group. […] After incubating the plate in the incubator for a period of time (24 or 48 h), 10 μL CCK8 solution was added to each well, and then the plate was incubated in incubator for 1.5 h. the absorbance OD value was determined at 450 nm by microplate reader, and the OD value was proportional to the number of living cells. […]
Structure (SMILES),half-life at 2 μM [1],Death number (72 h) (zebrafish embryos; 0.1 mg/L),Death number (72 h) (zebrafish embryos; 0.3 mg/L),Death number (72 h) (zebrafish embryos; 1 mg/L),Death number (72 h) (zebrafish embryos; 3 mg/L),Death number (72 h) (zebrafish embryos; 10 mg/L),Body length (72 h) (zebrafish embryos; 0.1 mg/L),Hatching number (72 h) (zebrafish embryos; 0.1 mg/L),Heartbeat (72 h) (zebrafish embryos; 0.1 mg/L),Unhatching number (72 h) (zebrafish embryos; 0.1 mg/L),Body length (72 h) (zebrafish embryos; 0.3 mg/L),Hatching number (72 h) (zebrafish embryos; 0.3 mg/L),Heartbeat (72 h) (zebrafish embryos; 0.3 mg/L),Unhatching number (72 h) (zebrafish embryos; 0.3 mg/L),Body length (72 h) (zebrafish embryos; 1 mg/L),Hatching number (72 h) (zebrafish embryos; 1 mg/L),Heartbeat (72 h) (zebrafish embryos; 1 mg/L),Unhatching number (72 h) (zebrafish embryos; 1 mg/L),hatching rate (zebrafish embryos; 1 mg/L),Hatching number (72 h) (zebrafish embryos; 3 mg/L),other results
"O=C(CCCCCc1ccccc1)N1CCOC1=O [Compound 2, Phenylhexanoyl Oxazolidinone]",3.13 h,3,2,1,30,30,3.86 ± 0.05 mm,27,130 ± 3.00 per min,0,3.87 ± 0.05 mm,28,130 ± 3.58 per min,0,3.85 ± 0.06 mm,29,128 ± 3.29 per min,0,96.67%,0,Unhatching number (72 h) (zebrafish embryos; 3 mg/L): 0; Hatching number (72 h) (zebrafish embryos; 10 mg/L): 0; Unhatching number (72 h) (zebrafish embryos; 10 mg/L): 0; effect on cell viability (RAW264.7 cells): no effect on cell viability
"O=C(CCCCCc1cccc(Cl)c1)N1CCOC1=O [Compound 9, 3-Chlorophenylhexanoyl Oxazolidinone]",2.72 h,2,2,3,30,30,3.90 ± 0.05 mm,28,129 ± 2.73 per min,0,3.86 ± 0.03 mm,28,130 ± 3.22 per min,0,3.88 ± 0.04 mm,27,130 ± 2.76 per min,0,90%,0,Unhatching number (72 h) (zebrafish embryos; 3 mg/L): 0; Hatching number (72 h) (zebrafish embryos; 10 mg/L): 0; Unhatching number (72 h) (zebrafish embryos; 10 mg/L): 0; effect on cell viability (RAW264.7 cells): no effect on cell viability
